Positions of bridges follow the written chain, without caps; N, C: chain ends. Residues, ends and D or L forms follow the SMILES beside them.
Assays:
[1] = system: thrombus formation in the lung; conditions: mice, oral, three consecutive days
[2] = system: THP-1 cells; conditions: cited from earlier work

In the case of `CC(C)C[C@@H]1NC(=O)[C@@H]2CSSC[C@@H]3NC(=O)[C@H](Cc4c[nH]c5ccccc45)NC(=O)[C@H](C)NC(=O)CNC(=O)CNC(=O)[C@H](CO)NC(=O)[C@H](CCCCN)NC(=O)[C@@H](N)CSSC[C@@H]4NC(=O)[C@H](CSSC[C@H](NC(=O)[C@H](Cc5ccccc5)NC(=O)CNC(=O)[C@H](C(C)C)NC1=O)C(=O)N[C@@H](Cc1ccc(O)cc1)C(=O)NCC(=O)N[C@@H]([C@@H](C)O)C(=O)NCC(=O)N[C@H](C(=O)O)CSSC[C@H](NC(=O)[C@H](CC(N)=O)NC(=O)CNC4=O)C(=O)NCC(=O)N2)NC(=O)CNC(=O)[C@H](Cc1c[nH]cn1)NC(=O)[C@@H]1CCCN1C(=O)[C@H](CC(=O)O)NC(=O)[C@H](Cc1ccccc1)NC(=O)CNC3=O` [ginsentide TP1] (H-CKSGGAWCGFDPHGCCGNCGCLVGFCYGTGC-OH; disulfide 1-16, 8-21, 15-26, 19-31), the “thrombus formation in the lung compared to control, 30 mg/kg” value [1] is listed as “significantly reduced” and the “increase in IL-6, IL-8, IL-10, and TNFα” value [2] is listed as “no observable increase”.
